In the NIST ThermoML archive (doi:10.1016/j.jct.2015.08.014):
± gives the expanded uncertainty stated by the source.

Assay: xn = mol fraction of the nth substance listed
Conditions: 100 kPa, Liquid; for electrical conductivity: Alternating current cell with electrodes; for mass density: Vibrating tube method; for viscosity: Capillary tube (Ostwald / Ubbelohde) method

CCCC[N+]1(C)CCCC1.N#CN=C=[N-] [1-butyl-1-methylpyrrolidinium dicyanamide] + O=C1CCCO1
electrical conductivity [S/m]
Conditions	Frequency=0.0005 MHz	Frequency=0.001 MHz	Frequency=0.0015 MHz	Frequency=0.002 MHz	Frequency=0.0025 MHz	Frequency=0.003 MHz	Frequency=0.00347222 MHz	Frequency=0.01 MHz
298.15 K, x1 = 0.1449	–	–	–	–	–	–	–	2.51 ± 0.026
298.15 K, x1 = 0.1859	–	–	–	–	–	–	–	2.68 ± 0.027
298.15 K, x1 = 0.2493	–	–	–	–	–	–	–	2.614 ± 0.026
298.15 K, x1 = 0.3029	–	–	–	–	–	–	–	2.54 ± 0.026
298.15 K, x1 = 0.3845	–	–	–	–	–	–	–	2.36 ± 0.024
298.15 K, x1 = 0.4985	–	–	–	–	–	–	–	2.08 ± 0.021
298.15 K, x1 = 0.6954	–	–	–	–	–	–	–	1.68 ± 0.017
298.15 K, x1 = 0.9013	–	–	–	–	–	–	–	1.39 ± 0.014
298.15 K, x1 = 1	–	–	–	–	–	–	–	1.318 ± 0.013
303.15 K, x1 = 0.0463	1.56 ± 0.028	1.57 ± 0.028	1.57 ± 0.028	1.57 ± 0.028	1.57 ± 0.028	1.58 ± 0.028	1.58 ± 0.028	–
303.15 K, x1 = 0.0987	2.36 ± 0.029	2.37 ± 0.03	2.37 ± 0.03	2.38 ± 0.03	2.38 ± 0.03	2.38 ± 0.03	2.38 ± 0.03	–
303.15 K, x1 = 0.1449	2.71 ± 0.029	2.71 ± 0.029	2.71 ± 0.029	2.71 ± 0.029	2.71 ± 0.029	2.71 ± 0.029	2.71 ± 0.029	–
303.15 K, x1 = 0.1859	2.87 ± 0.029	2.88 ± 0.029	2.89 ± 0.029	2.89 ± 0.029	2.89 ± 0.029	2.89 ± 0.029	2.9 ± 0.029	–
303.15 K, x1 = 0.2493	2.85 ± 0.029	2.85 ± 0.029	2.85 ± 0.029	2.85 ± 0.029	2.85 ± 0.029	2.85 ± 0.029	2.85 ± 0.029	–
303.15 K, x1 = 0.3029	2.78 ± 0.028	2.78 ± 0.028	2.78 ± 0.028	2.79 ± 0.028	2.79 ± 0.028	2.79 ± 0.028	2.79 ± 0.028	–
303.15 K, x1 = 0.3845	2.608 ± 0.026	2.612 ± 0.026	2.614 ± 0.026	2.616 ± 0.026	2.616 ± 0.026	2.617 ± 0.026	2.617 ± 0.026	–
303.15 K, x1 = 0.4985	2.33 ± 0.024	2.33 ± 0.024	2.33 ± 0.024	2.33 ± 0.024	2.33 ± 0.024	2.33 ± 0.024	–	–
303.15 K, x1 = 0.6954	1.908 ± 0.019	1.909 ± 0.019	1.91 ± 0.019	1.911 ± 0.019	1.911 ± 0.019	1.911 ± 0.019	–	–
303.15 K, x1 = 0.9013	1.602 ± 0.016	1.604 ± 0.016	1.605 ± 0.016	1.606 ± 0.016	1.606 ± 0.016	1.607 ± 0.016	–	–
303.15 K, x1 = 1	1.525 ± 0.015	1.526 ± 0.015	1.526 ± 0.015	1.527 ± 0.015	1.527 ± 0.015	1.527 ± 0.015	–	–

Conditions	electrical conductivity, 303.15 K [S/m]	mass density, 298.15 K [kg/m3]	viscosity, 303.15 K [mPa·s]
x1 = 0.0463	1.58 ± 0.028	–	–
x1 = 0.0987	2.38 ± 0.03	1103.29 ± 8.8	2.56 ± 0.06
x1 = 0.1449	2.71 ± 0.029	–	–
x1 = 0.1859	2.9 ± 0.029	1087.38 ± 8.7	3.64 ± 0.08
x1 = 0.2493	2.86 ± 0.029	–	–
x1 = 0.3029	2.79 ± 0.028	1069.77 ± 8.6	5.53 ± 0.12
x1 = 0.3845	2.619 ± 0.026	–	–
x1 = 0.4985	2.33 ± 0.024	1047.53 ± 8.4	9.91 ± 0.22
x1 = 0.6954	1.912 ± 0.019	1031.19 ± 8.3	16.03 ± 0.36
x1 = 0.9013	1.608 ± 0.016	1018.43 ± 8.2	23.88 ± 0.54
x1 = 1	1.527 ± 0.015	1013.45 ± 8.1	28.53 ± 0.65
